Data: publication PMC12931155, “Colorectal Cancer Cell's Weapon: RNF32 Engages SPP1^+ Macrophages to Foster Liver Metastasis, Targeted by Indole‐3‐Acetic Acid” (Advanced Science, 2025)

Molecular target: T1, RNF32 (GFP-RNF32) (Homo sapiens, UniProt Q9H0A6)
T1 construct: GFP-RNF32 fusion from plasmid, expressed in HCT116 cells, diluted cell lysate (not purified)
Experiment: microscale thermophoresis, GFP-RNF32 in HCT116 lysate
Format: biochemical

T1 sequence (Q9H0A6 whole entry, the tested form may be a part): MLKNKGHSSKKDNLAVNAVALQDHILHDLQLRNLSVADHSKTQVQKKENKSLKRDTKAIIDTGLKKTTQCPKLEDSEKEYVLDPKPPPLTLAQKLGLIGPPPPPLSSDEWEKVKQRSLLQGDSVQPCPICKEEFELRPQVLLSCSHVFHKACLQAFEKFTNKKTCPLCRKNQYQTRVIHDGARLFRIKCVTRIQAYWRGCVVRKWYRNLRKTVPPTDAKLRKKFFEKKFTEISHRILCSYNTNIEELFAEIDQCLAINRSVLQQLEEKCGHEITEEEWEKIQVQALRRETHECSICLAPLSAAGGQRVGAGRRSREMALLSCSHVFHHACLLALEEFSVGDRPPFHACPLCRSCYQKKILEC

- Kd: 41.3 µM
SMILES: O=C(O)Cc1c[nH]c2ccccc12 [indole‐3‐acetic acid]
